{"source": "paper PMC3115942", "about": "(PLoS ONE, 2011)", "key": {"[1]": {"test_system": "Gli1 or Gli2 (GliBS-Luc, NIH3T3 cells)", "test": "GliBS-Luc reporter in NIH3T3 cells with forced Gli1 or Gli2 expression", "type": "cell-based", "settings": "10 µM, 48 hours", "experimental": "Vectors were obtained from the following: GliBS-Luc reporter (gift from H. Sasaki), pBluescript (pBS) (Stratagene), FL-HA-GLI1 (Gli1) and Gli2-GFP (Gli2) (gifts from R. Toftgård), Super8XTOPFlash, and NFkB-luc (Panomics). 10 ng renilla luciferase (pRL-TK) (Promega) was used as a transfection control. HEK293 and NIH3T3 cells were seeded at 80,000 per well in 48-well plates on day 1, and were co-transfected on day 2 using a total of 0.4 µg plasmid per well mixed at 1∶3 in FUGENE6 according to manufacturer^'s instructions. On day 3, control medium and activating medium (50% L1 conditioned medium, 50% Shh conditioned medium or medium containing 10 ng/mL recombinant rcrTNF-α (R&D Systems)) +/− 10–20 µM MS-0022 were added, using DMSO as a control (the NFkB pathway inhibitor Bay11-7082 was used as a control in the NFkB assay). Samples were analyzed on day 4 or 5 using the Dual Luciferase assay kit according to manufacturer^'s instructions. Graphs display relative or fold reporter activity, and are calculated from a mean ratio of firefly reporter luminescence/pRL-TK luminescence with standard deviation error bars (n = 3). The experiments have been repeated with similar results."}, "[2]": {"test_system": "Gli1 mRNA expression in Ptch−/− MEF", "test": "Real time PCR of Gli1 mRNA in Ptch−/− MEF", "type": "cell-based, mouse", "settings": "5 µM, 48 hours", "experimental": "Cells were lysed for RNA extraction after 48 or 72 hours of treatment. Total RNA from cultured cells or tumor tissue was isolated using the GeneElute miniprep kit (Sigma-Aldritch) following the manufacturer^'s instructions. cDNA was synthesized from the isolated mRNA using the Retroscript kit (Ambion), and real-time PCR was carried out using the SYBR Green PCR master mix (Stratagene) according to the manufacturer^'s instructions with an Mx3000P cycler (Stratagene). The relative concentrations of cDNA present in each sample were calculated by the MxPro software (Stratagene), normalized for GAPDH (mRNA from cells) or GUS (mRNA from tumors). For real time PCR primer sequences see Table 6. For the tumor tissue real time PCR, previously described human and mouse specific primers against GUSB, PTCH1 and GLI1were used."}, "[3]": {"test": "Liver transaminases (AST/ALT) in xenografted mice", "type": "in vivo, mouse", "settings": "50 mg/kg, 30 days injection scheme (5 day injection, 2 day pause), PANC-1 xenograft mice", "experimental": "For PANC-1 xenografts, 4–6 week old CB17/SCID mice were injected with 5×10^6 PANC-1 (n = 6 per group) cells in 200 µl PBS subcutaneously on day 1. IP treatment with 50 mg/kg MS-0022 began when median tumor size reached 25 mm^2 (day 27). MS-0022 was pulverized using a pestle, and was mixed into a stable suspension in water containing 1% Tween 80 (Sigma-Aldrich). Mice were treated with MS-0022 or solvent for a period of 30 days after initiation in a 5 day injection 2 day pause scheme, and tumor size was measured throughout using calipers (mm^2). After 30 days the mice were sacrificed and tumors dissected and weighed. The PANC-1 xenograft endpoint was taken two days after the last compound treatment.\nBlood was collected from the hepatic vein of freshly sacrificed animals into heparinized capillary blood collection tubes (Sarstedt), which were immediately centrifuged and the serum was collected. AST and ALT were run on non-hemolyzed samples using AST and ALT kits (Randox) following the manufacturer^'s instructions."}, "Dose tolerance in mice": {"test": "Dose tolerance in mice", "type": "in vivo", "experimental": "MS-0022 tolerance was tested by daily injections of 200 mg/kg MS-0022 for 5 days in 7–8 week old male C57BL mice. Animal were observed daily for outward signs of toxicity (weight loss, fur ruffling, hunched posture)."}, "[4]": {"test_system": "Hh pathway in Shh-L2 cells", "test": "Hh reporter assay in Shh-L2 cells", "type": "cell-based, mouse", "experimental": "Shh-L2 cells were used as a Hh reporter cell line as described previously. Hh signaling was induced by Shh conditioned medium, 200 nM SAG (AH-Diagnostics) and ActOXS (a combination of 5 µM Hydroxycholesterol 20-alfa and 5 µM Hydroxycholesterol 22S (Sigma-Aldrich)). For Shh conditioned medium, Shh-PANC-1 cells were grown to confluence and switched to fresh medium. Shh conditioned medium was harvested after 48 hours, and was diluted to 50% in fresh DMEM before use. The clonal Shh-PANC-1 cell line was generated by stably transducing PANC-1 cells with virus containing medium from HEK293T cells that were transfected using a Virapower Lentiviral expression kit (Invitrogen). The vector was produced by removing GFP from a pLenti 6.2-vector, and inserting the mouse Shh cDNA sequence.\nThe calculations were performed with an online calculator using the formula: a exp (−bx) + c at the website; http://www.changbioscience.com/stat/ec50.html"}, "PC-3 cells": {"test_system": "PC-3 cells", "test": "Passage growth assay, PC-3", "type": "cell-based, human", "settings": "5 µM, passages of 5–7 days", "experimental": "20,000 cells were seeded per well in 6 well plates (triplicates) with DMSO or 5 µM MS-0022. Treatment medium was changed on day 3–5, and after 5–7 days the cells were trypsinized, re-suspended in medium and counted, before reseeding cells at 20,000/well for a subsequent passage. The average growth of MS-0022 treated cells was calculated as a percentage of the growth of the DMSO control at the end of each passage. Graphs display average of percent growth with standard deviation bars (n = 3)."}}, "data": [{"smiles": "Cc1cccn2cc(-c3ccc(NC(=O)c4ccccc4Br)cc3)nc12", "note": "[MS-0022, 2-bromo-N-(4-(8-methylimidazo[1,2-a]pyridin-2-yl)phenyl)benzamide]", "values": [{"measurement": "inhibition of Gli1 or Gli2 when pathway further activated by Shh", "setting": "[1]; 50% Shh conditioned medium", "value": "partial inhibition"}, {"measurement": "Hh pathway inhibitory effect at the level of forced Gli1 or Gli2 expression", "setting": "[1]; without Shh", "value": "not detected"}, {"measurement": "Gli1 mRNA expression in Ptch−/− MEFs", "setting": "[2]", "value": "reduced Gli1 mRNA expression"}, {"measurement": "AST/ALT levels", "setting": "[3]", "value": "greater than 1"}, {"measurement": "outward signs of toxicity or other side effects", "setting": "Dose tolerance in mice; 200 mg/kg daily for 5 days", "value": "did not show any outward signs of toxicity"}, {"measurement": "alterations in body weight", "setting": "Dose tolerance in mice; daily IP injections of 200 mg/kg for 5 days", "value": "No statistically significant alterations"}, {"measurement": "MTD at 5 days", "setting": "Dose tolerance in mice; male, C57BL, mouse, in vivo, intraperitoneal, 200 mg/kg, mice", "value": "> 200", "unit": "mg/kg"}, {"measurement": "Hh pathway induction in Shh, SAG and ActOXS induced Shh-L2 cells", "setting": "[4]; 5 µM, 48 hours, Shh, 200 nM SAG, ActOxs (5 µM+5 µM)", "value": "blocked Hh pathway induction"}, {"measurement": "IC50", "setting": "[4]; Mus musculus, pathway inhibition in Shh induced Shh-L2 cells, 48 hours treatment", "value": 100, "unit": "nM"}, {"measurement": "growth reduction after passage 2, PC-3", "setting": "PC-3 cells", "value": 80, "unit": "%"}]}]}
